In this assay the target is T1, androgen receptor (AR) (Homo sapiens, UniProt P10275).
T1 construct: AR expressed transiently from plasmid pSVAR0 (known as a human full-length AR expression vector)
T1 sequence (P10275 1-920): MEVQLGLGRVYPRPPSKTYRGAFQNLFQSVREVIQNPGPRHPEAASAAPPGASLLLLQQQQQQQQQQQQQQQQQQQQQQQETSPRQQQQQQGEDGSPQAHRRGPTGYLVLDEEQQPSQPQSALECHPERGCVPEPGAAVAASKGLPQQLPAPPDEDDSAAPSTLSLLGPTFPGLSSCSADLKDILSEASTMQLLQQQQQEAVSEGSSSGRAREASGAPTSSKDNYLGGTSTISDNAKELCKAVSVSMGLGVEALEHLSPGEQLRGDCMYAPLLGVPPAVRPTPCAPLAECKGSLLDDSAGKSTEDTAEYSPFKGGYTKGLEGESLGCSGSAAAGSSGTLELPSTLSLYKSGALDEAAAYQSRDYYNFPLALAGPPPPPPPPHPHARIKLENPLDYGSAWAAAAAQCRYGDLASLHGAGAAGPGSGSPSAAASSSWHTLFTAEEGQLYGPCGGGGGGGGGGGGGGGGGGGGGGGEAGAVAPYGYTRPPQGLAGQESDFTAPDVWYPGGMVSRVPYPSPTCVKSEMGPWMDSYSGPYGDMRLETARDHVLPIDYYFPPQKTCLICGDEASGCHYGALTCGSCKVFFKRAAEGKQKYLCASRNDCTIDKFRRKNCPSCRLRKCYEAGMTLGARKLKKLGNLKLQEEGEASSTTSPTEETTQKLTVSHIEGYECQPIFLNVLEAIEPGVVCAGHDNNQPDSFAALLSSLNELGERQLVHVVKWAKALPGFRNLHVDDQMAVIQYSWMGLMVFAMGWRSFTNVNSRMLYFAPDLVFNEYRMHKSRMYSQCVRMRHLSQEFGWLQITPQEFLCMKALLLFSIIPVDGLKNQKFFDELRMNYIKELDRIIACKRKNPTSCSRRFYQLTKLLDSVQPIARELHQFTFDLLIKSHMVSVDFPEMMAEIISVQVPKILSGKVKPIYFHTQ
As to the kind of experiment: MMTV-luciferase reporter gene agonist assay, transfected CV-1 cells. The following applies: agonist mode, […] h, […] °C. It counts as cell-based. The source says: MMTV-luciferase reporter gene agonist assay, transfected CV-1 cells on androgen receptor (AR)
(A reporter such as luciferase makes a cellular process visible.)

The text below walks through data of paper PMC6930600, “Synthesis of Aryl Propionamide Scaffold Containing a Pentafluorosulfanyl Moiety as SARMs” (Molecules, 2019).

In the case of `C[C@](O)(COc1ccc(C#N)cc1)C(=O)Nc1cccc(S(F)(F)(F)(F)F)c1` [12a, (S)-3-(4-cyanophenoxy)-2-hydroxy-2-methyl-N-(3-(pentafluoro-l6-sulfanyl)phenyl)propanamide], the “Agonist activity in CV-1 / EC50” value (unreliable) is 1508 ± 429.9 nM.
`C[C@](O)(COc1ccc(F)cc1)C(=O)Nc1cccc(S(F)(F)(F)(F)F)c1` [12b, (S)-3-(4-fluorophenoxy)-2-hydroxy-2-methyl-N-(3-(pentafluoro-l6-sulfanyl)phenyl)propanamide]: the “Agonist activity in CV-1 / EC50” value (unreliable (above top tested concentration […])) is 51213.5 ± 5806.1 nM.
For `CCC(=O)c1ccc(OC[C@](C)(O)C(=O)Nc2cccc(S(F)(F)(F)(F)F)c2)cc1` [12f, (S)-2-hydroxy-2-methyl-N-(3-(pentafluoro-l6-sulfanyl)phenyl)-3-(4-propionylphenoxy)propanamide], the “Agonist activity in CV-1 / EC50” value (unreliable) turned out to be 12733.5 ± 2144.7 nM.
The same measure, in the same setting: in the case of `COc1ccc(OC[C@](C)(O)C(=O)Nc2ccc(S(F)(F)(F)(F)F)cc2)c(F)c1` [16g, (S)-3-(2-fluoro-4-methoxyphenoxy)-2-hydroxy-2-methyl-N-(4-(pentafluorosulfanyl)phenyl)propanamide] it was 2144.0 ± 694.4 nM.
The same measure, in the same setting: in the case of `C[C@](O)(COc1ccc(Cl)cc1)C(=O)Nc1cccc(S(F)(F)(F)(F)F)c1` [12c, (S)-3-(4-chlorophenoxy)-2-hydroxy-2-methyl-N-(3-(pentafluoro-l6-sulfanyl)phenyl)propanamide] it was 1282 ± 79.2 nM.
